Laboratory results as given in ChEMBL document CHEMBL1122267, “Pyridazinones. 3. Synthesis, antisecretory, and antiulcer activities of 2-cyanoguanidine derivatives” (1983).
Activity calls are given as the source filed them. The rule behind the calls is not given here.

What was measured:
[1] = species: Rattus norvegicus; assay: Effective dose for 50 percent inhibition of gastric antisecretory activity in the 4 hr pylorus-ligated rat; assay type: functional; details: Stomach
[2] = tested on: Rattus norvegicus; assay: Percent inhibition of gastric antisecretory activity in the 4 hr pylorus-ligated rat to that of control at a dose of 100 mg/kg; assay type: functional; details: Stomach, read-out: Inhibition
[3] = tested on: Rattus norvegicus; assay: Compound was evaluated for antiulcer activity in rats due to stress after oral administration; assay type: functional
[4] = tested on: Rattus norvegicus; assay: Compound was evaluated for antiulcer activity due to stress in rats after oral administration; not statistically significant; assay type: functional, organism-based
[5] = tested on: Rattus norvegicus; assay: Percent inhibition of gastric antisecretory activity in the 4 hr pylorus-ligated rat to that of control at a dose of 100 mg/kg; not statistically significant; assay type: functional; details: Stomach
[6] = tested on: Rattus norvegicus; assay: Compound was evaluated for antiulcer activity in rats after oral administration. (stress ulcer); NS means not statistically significant; assay type: functional, organism-based

C/N=C(\NC#N)NCCSCn1nc(-c2ccc(Cl)cc2)ccc1=O
ED50 [1]: < 39.1 mg/kg | inhibition in vivo at 100 mg/kg [2]: 70.3%

C/N=C(\NC#N)NCCSCn1nc(C)ccc1=O
ED50 [3]: > 100 mg/kg | ED50 [1]: > 100 mg/kg | inhibition in vivo at 100 mg/kg [2]: 30%

CN/C(=N\CCSCc1nc[nH]c1C)NC#N [CIMETIDINE]
ED50 [3]: 43.2 mg/kg | ED50 [1]: 60.3 mg/kg | inhibition in vivo at 100 mg/kg [2]: 80.6%

CCC/N=C(\NC#N)NCCSCn1nc(-c2ccccc2)ccc1=O
ED50 [3]: 97.6 mg/kg | ED50 [1]: > 100 mg/kg | inhibition in vivo at 100 mg/kg [2]: 37.3%

C/N=C(\NC#N)NCCSCCn1nc(-c2ccccc2)ccc1=O
ED50 [3]: 77.6 mg/kg | ED50 [1]: < 80 mg/kg | inhibition in vivo at 100 mg/kg [2]: 58.3%

C/N=C(\NC#N)NCCCCOCn1nc(-c2ccccc2)ccc1=O
ED50 [4]: inactive | ED50 [1]: > 100 mg/kg | inhibition in vivo at 100 mg/kg [2]: 32.8%

C/N=C(\NC#N)NCCCOCn1nc(-c2ccccc2)ccc1=O
ED50 [4]: inactive | ED50 [1]: < 100 mg/kg | inhibition in vivo at 100 mg/kg [2]: 49.8%

C/N=C(\NC#N)NCCSCn1nc(N(C)C)ccc1=O
inhibition in vivo at 100 mg/kg [5]: 6.9%

CC/N=C(\NC#N)NCCSCn1nc(C)ccc1=O
ED50 [1]: > 100 mg/kg | inhibition in vivo at 100 mg/kg [2]: 26.7%

CC/N=C(\NC#N)NCCSCCn1nc(-c2ccccc2)ccc1=O
ED50 [1]: < 100 mg/kg | inhibition in vivo at 100 mg/kg [2]: 50.8%

CC/N=C(\NC#N)NCCSCn1nc(-c2ccccc2)ccc1=O
ED50 [3]: 63.1 mg/kg | ED50 [1]: < 100 mg/kg | inhibition in vivo at 100 mg/kg [2]: 50.1%

C/N=C(\NC#N)NCCSCn1nc(-c2ccc(C)cc2)ccc1=O
ED50 [1]: < 53.8 mg/kg | inhibition in vivo at 100 mg/kg [2]: 62.5%

C/N=C(\NC#N)NCCSCCCn1nc(-c2ccccc2)ccc1=O
inhibition in vivo at 100 mg/kg [5]: 18.2% | ED50 [3]: > 100 mg/kg

C/N=C(\NC#N)NCCCCn1nc(-c2ccccc2)ccc1=O
ED50 [3]: 38.5 mg/kg | ED50 [1]: 32.4 mg/kg | inhibition in vivo at 100 mg/kg [2]: 79%

C/N=C(\NC#N)NCCSCn1nc(N2CCOCC2)ccc1=O
inhibition in vivo at 100 mg/kg [5]: -12.5% | ED50 [6]: inactive

C/N=C(\NC#N)NCCOCn1nc(-c2ccccc2)ccc1=O
ED50 [3]: > 100 mg/kg | ED50 [1]: < 82.3 mg/kg | inhibition in vivo at 100 mg/kg [2]: 60.6%

C/N=C(\NC#N)NCCSCn1nc(-c2ccccc2)ccc1=O
ED50 [3]: 28.5 mg/kg | ED50 [1]: < 30.5 mg/kg | inhibition in vivo at 100 mg/kg [2]: 83.3%

CC/N=C(\NC#N)NCCSCCCn1nc(-c2ccccc2)ccc1=O
inhibition in vivo at 100 mg/kg [5]: 22.9%

CCC/N=C(\NC#N)NCCSCCn1nc(-c2ccccc2)ccc1=O
ED50 [1]: > 100 mg/kg | inhibition in vivo at 100 mg/kg [2]: 33.5%
